# Measured values from US10774051B2, “6-membered heterocyclic derivatives and pharmaceutical composition comprising the same” (Shionogi & Co., Ltd., priority 2015, dated 2020).
# Molecular target: human P2X7 receptor (Homo sapiens, UniProt Q99572, R270H/Y155H)
# Test: Evaluation of human P2X7 receptor inhibitory activity (Yo-Pro uptake, BzATP stimulation, FLIPR TETRA)
# Type: cell-based
# Details: 1321N1 cells stably expressing human P2X7 receptor; BzATP stimulation, Yo-Pro uptake; read-out: IC50 (antagonistic activity for the human P2X7 receptor)
# Protocol: Stably expressing cell line (1321N1 cell transfected with the human P2X7 receptor gene (GenBank accession number NM_002562.5 including T606C and G952A SNP)) was used. The cells were seeded in a 384-well microtiter plate at a concentration of 8000 cells/well and cultured in the medium (10% fetal bovine serum, 25 mM HEPES, 1% penicillin and streptomycin in DMEM) for one day at 37° C. under 5% carbon dioxide atmosphere. After replacing with 20 μL of the HBSS buffer (20 mM HEPES, 55.6 mM D-glucose, 1×HBSS(−), pH7.4-7.5), 15 μL of 17.3 μM Yo-Pro solution in the HBSS buffer was added. The plate was placed in high-throughput cellular screening system FLIPR TETRA (Molecullar Devices, LLC.) and 15 μL of 130 μM BzATP solution in the HBSS buffer was added. Measurement of fluorescence intensity by FLIPR TETRA was started. After eight minutes, 15 μL of DMSO solutions containing different concentrations of the compound of the present invention as prepared by dilution with the HBSS buffer were dispensed to each well through the built-in automatic dispenser, and the measurement of fluorescence intensity was continued for 20 minutes. […] Changing values of fluorescence intensity by the compound of the present invention were calculated by difference between maximum and minimum fluorescence intensity for 20 minutes. Inhibition ratios (%) were calculated from the following equation:
# [formula] IC50 was calculated using logistic approximation.
row,Compound,IC50 [nM]
1,COc1cn(Cc2cc(F)c(F)c(F)c2)c(Nc2cc3sc(C)nc3cc2C)nc1=NC#N [Compound I-1285],27
2,O=c1nc(Nc2cccc3c(=O)[nH]ccc23)n(Cc2cc(F)cc(F)c2)cc1F [Compound I-0703],16
3,COc1cn(Cc2ccc(F)c(Cl)c2)c(Nc2cc(S(C)(=O)=O)cc(C)c2C)nc1=O [Compound I-0755],12
4,COc1cn(Cc2ccccc2)c(Nc2ccccc2SC)nc1=O [Compound I-0382],350
5,COc1cc(C)c(Nc2cc(=O)n(C)c(=O)n2Cc2cc(F)c(F)c(F)c2)cc1C [Compound I-0991],29

# Same assay, conditions: 1321N1 cells stably expressing human P2X7 receptor; BzATP stimulation, Yo-Pro uptake; read-out: IC50 (antagonistic activity for the human P2X7 receptor), class symbol
row,Compound,IC50 [nM]
1,CCc1c(Nc2nc(=O)c(OC)cn2Cc2ccc(F)c(Cl)c2)cc(OC)cc1OC [Compound I-0363],< 10
2,COc1cn(Cc2cccc(Cl)c2)c(Nc2cc(C)c(F)cc2C)nc1=O [Compound I-0506],< 10
3,COc1cn(Cc2cc(F)cc(F)c2)c(Nc2ccc(OC(C)C)cc2C)nc1=O [Compound I-0531],10 to 100
4,Cc1c(Cl)cccc1Nc1nc(=O)c(OC(C)C)cn1Cc1ccccc1 [Compound I-0142],10 to 100
5,COc1cn(Cc2ccccc2)c(Nc2ccc(Br)cc2Cc2ccccc2)nc1=O [Compound I-0184],100 to 500
6,COc1cn(Cc2ccc(F)c(F)c2)c(Nc2cc(-c3nnco3)ccc2C)nc1=O [Compound I-0523],10 to 100
7,Cc1c(Cl)cccc1Nc1nc(=O)c(C(=O)NCC(F)(F)F)cn1Cc1ccccc1 [Compound I-0098],500 to 1000
8,COc1cn(Cc2ccccc2)c(Nc2cccc(Cl)c2C)nc1=O [Compound I-0037],< 10
9,COc1cn(Cc2ccccc2)c(Nc2cc(CO)ccc2C)nc1=O [Compound I-0180],10 to 100
10,CCc1cc2c(cc1Nc1nc(=O)c(OC)cn1Cc1ccccc1)CCC2 [Compound I-0116],< 10
11,COc1cn(Cc2ccccc2)c(Nc2ccccc2Cl)nc1=O [Compound I-0060],500 to 1000
12,COc1cn(Cc2ccc(F)c(F)c2)c(Nc2cc(C)c(OC(F)F)cc2C)nc1=O [Compound I-0302],< 10
13,COc1cn(Cc2cccc(C)c2)c(Nc2cccc(Cl)c2C)nc1=O [Compound I-0044],10 to 100
14,CCc1cc(F)ccc1Nc1nc(=O)c(OC)cn1Cc1ccccc1 [Compound I-0400],100 to 500
15,COc1cn(Cc2ccccc2)c(Nc2cc(Cl)cc(Cl)c2Cl)nc1=O [Compound I-0145],10 to 100
16,COc1cn(Cc2ccc(F)c(Cl)c2)c(Nc2cccc(OC(F)F)c2C)nc1=O [Compound I-0511],< 10
17,COc1cc(C)cc(Nc2nc(=O)c(OC)cn2Cc2cc(F)cc(F)c2)c1C [Compound I-0371],< 10
18,COc1cn(Cc2cc(F)cc(F)c2)c(Nc2cccc(C(F)(F)F)c2C)nc1=O [Compound I-0470],10 to 100
19,COc1cn(Cc2ccccc2)c(Nc2cc(-c3nc4ncccc4o3)ccc2C)nc1=O [Compound I-0416],10 to 100
20,COc1cn(Cc2ccccc2)c(Nc2cc(Cl)c(Cl)cc2C)nc1=O [Compound I-0476],< 10
21,Cc1c(Cl)cccc1Nc1nc(=O)c(F)cn1Cc1ccccc1 [Compound I-0010],< 10
22,COc1cn(Cc2cccc(F)c2)c(Nc2cc3c(cc2C)OCCO3)nc1=O [Compound I-0288],10 to 100
23,COc1cn(Cc2ccc(F)c(Cl)c2)c(Nc2cccc3sccc23)nc1=O [Compound I-0486],< 10
24,COCc1cccc(Nc2nc(=O)c(OC)cn2Cc2ccc(F)c(Cl)c2)c1C [Compound I-0353],10 to 100
25,COc1cn(Cc2ccccc2)c(Nc2ccc(OC(F)F)cc2C)nc1=O [Compound I-0364],100 to 500
26,COc1cn(Cc2ccc(F)c(F)c2)c(Nc2ccc(OC(C)C)cc2C)nc1=O [Compound I-0530],10 to 100
27,COc1cn(Cc2ccc(F)c(F)c2)c(Nc2cccc3sccc23)nc1=O [Compound I-0485],< 10
28,CCc1cc(OC)c(OC)cc1Nc1nc(=O)c(OC)cn1Cc1ccccc1 [Compound I-0256],< 10
29,Cc1c(Cl)cccc1Nc1nc(=O)c(CC(=O)NCCO)cn1Cc1ccccc1 [Compound I-0337],100 to 500

# Same assay, conditions: antagonistic activity for the human P2X7 receptor; read-out: IC50
row,Compound,IC50 [nM]
1,O=c1nc(Nc2cccc3c(O)cccc23)n(Cc2ccc(F)c(Cl)c2)cc1F [Compound I-1116],< 10
2,COc1cn(Cc2cc(F)cc(F)c2)c(Nc2cc(-c3cccnc3)ccc2C)nc1=O [Compound I-0766],< 10
3,COc1cn(Cc2cc(F)cc(F)c2)c(Nc2cc3c(cc2C)OCO3)nc1=O [Compound I-0741],10 to 100
4,COc1cn(Cc2cc(F)c(F)c(F)c2)c(Nc2cc(C)c(OC(F)(F)F)cc2C)nc1=O [Compound I-0925],10 to 100
5,CCOc1ccc(C)c(Nc2nc(=O)c(F)cn2Cc2ccc(F)c(F)c2)c1 [Compound I-0999],< 10
6,COc1cn(Cc2ccc(F)c(Cl)c2)c(Nc2cc(Cl)c(F)cc2C)nc1=O [Compound I-0809],10 to 100
7,COCc1cn(Cc2cc(F)c(F)c(F)c2)c(Nc2ccc(OC)cc2C)nc1=O [Compound I-1140],10 to 100
8,COc1cn(Cc2ccccc2)c(Nc2cc(-c3cccnc3)ccc2C)nc1=O [Compound I-0690],10 to 100
9,COc1cn(Cc2cc(F)c(F)c(F)c2)c(Nc2cccc(SC)c2C)nc1=O [Compound I-0704],< 10
10,Cc1cc(Nc2nc(=O)ccn2Cc2cc(F)c(F)c(F)c2)c2cc[nH]c2c1 [Compound I-1161],< 10
11,COc1ccc(Nc2nc(=O)c(C(=O)O)nn2Cc2cc(F)c(F)c(F)c2)c(C)c1 [Compound I-1250],100 to 500
12,Cc1c(F)cccc1Nc1nc(=O)c(F)cn1Cc1cc(F)c(F)c(F)c1 [Compound I-1181],< 10
13,COc1cn(Cc2ccccc2)c(Nc2cc(OC3CC3)ccc2C)nc1=O [Compound I-0888],10 to 100
14,COc1cn(Cc2ccccc2)c(Nc2cc(OC(F)F)ccc2C)nc1=O [Compound I-0870],10 to 100
15,Cc1ccc(CO)cc1Nc1nc(=O)cnn1Cc1cc(F)c(F)c(F)c1 [Compound I-1255],< 10
16,COc1cn(Cc2ccccc2)c(Nc2cc(-c3ccc(C)o3)ccc2C)nc1=O [Compound I-0658],10 to 100
17,COc1cn(Cc2cc(F)cc(Cl)c2)c(Nc2ccc(OC(F)F)cc2C)nc1=O [Compound I-0613],10 to 100
18,COc1cn(Cc2ccccc2)c(Nc2cc(-c3cnccn3)ccc2C)nc1=O [Compound I-0663],10 to 100
19,COCc1cn(Cc2cc(F)c(F)c(F)c2)c(Nc2cc(-c3nnco3)ccc2C)nc1=O [Compound I-1131],10 to 100

row,Compound,IC50 [nM]
1,COc1cn(Cc2ccccc2)c(Nc2cc(Cl)cc3[nH]ccc23)nc1=O [Compound I-0818],10 to 100
2,COc1cn(Cc2ccc(F)c(Cl)c2)c(Nc2cc(-c3cccn(C)c3=O)c(F)cc2C)nc1=O [Compound I-0591],10 to 100
3,CCOc1ccc(Nc2nc(=O)c(OC)cn2Cc2cc(F)cc(Cl)c2)c(C)c1 [Compound I-0681],10 to 100
4,Cc1ccc(-c2nnco2)cc1Nc1nc(=O)c(Cl)cn1Cc1cc(F)c(F)c(F)c1 [Compound I-1157],< 10
5,COc1cn(Cc2ccc(F)c(F)c2)c(Nc2cc3sc(C)nc3cc2C)nc1=O [Compound I-0665],< 10
6,COc1cn(Cc2ccccc2)c(Nc2cc3c(cc2C)OCO3)nc1=O [Compound I-0720],10 to 100
7,COc1cn(Cc2cc(F)cc(F)c2)c(Nc2cc(-c3ccc(C)o3)ccc2C)nc1=O [Compound I-0769],10 to 100
8,CCc1cc(F)c(OC)cc1Nc1nc(=O)c(OC)cn1Cc1ccc(F)c(F)c1 [Compound I-0815],< 10
9,COc1cn(Cc2cc(F)cc(Cl)c2)c(Nc2cc(S(C)(=O)=O)cc(C)c2C)nc1=O [Compound I-0757],10 to 100
10,Cc1nc2cc(C)c(Nc3nc(=O)c(Cl)cn3Cc3ccc(F)c(Cl)c3)cc2s1 [Compound I-0787],< 10
11,COc1cn(Cc2cc(F)c(F)c(F)c2)c(Nc2cc(OC(F)F)c(C)cc2C)nc1=O [Compound I-0805],< 10
12,COc1cn(Cc2cc(F)c(F)c(F)c2)c(Nc2cc3c(cc2C)OCCO3)nc1=O [Compound I-0708],< 10
13,COc1cn(Cc2cc(F)c(F)c(F)c2)c(Nc2cc(-n3cccc3)ccc2C)nc1=O [Compound I-0894],< 10
14,O=C1CCCc2c(Nc3nc(=O)c(Cl)cn3Cc3cc(F)c(F)c(F)c3)cccc21 [Compound I-1162],< 10
15,Cc1nn(Cc2cc(F)c(F)c(F)c2)c(Nc2ccc3[nH]ccc3c2C)nc1=O [Compound I-1262],< 10
16,Cc1nc2[nH]ccc2cc1Nc1nc(=O)c(F)cn1Cc1cc(F)c(F)c(F)c1 [Compound I-1017],10 to 100
17,O=c1nc(Nc2cccc3[nH]ccc23)n(Cc2cc(F)cc(F)c2)cc1F [Compound I-1022],< 10
18,COc1cn(Cc2cc(F)cc(F)c2)c(Nc2cc(C)c(OCC(F)(F)F)cc2C)nc1=O [Compound I-0806],10 to 100
19,COc1cn(Cc2ccc(F)c(F)c2)c(Nc2cccc(SC)c2C)nc1=O [Compound I-0606],< 10
